Assay in all cases: inhibition of tumour cell growth, NCI panel, 48 h
For assay [1], the system named is HT29 colon.
The subject of assay [2] is SF-295 CNS.
Assay [3] has as its system LOX IMVI melanoma.
Assay [4] deals with SNB-19 CNS.
The test system of assay [5] is HL-60(TB) leukemia.
Assay [6] concerns NCI-H460 lung.
Assay [7] has as its system HCT-15 colon.
In assay [8] the test system is SK-MEL-5 melanoma.
Assay [9] has as its system SK-MEL-2 melanoma.
The subject of assay [10] is HS 578T breast.

Data on 17 compounds can be found in PubChem BioAssay (NCI).

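In this assay, cells in 96-well plates receive the compound at five concentrations for 48 hours. Endpoints are linearly interpolated between the surrounding concentrations. GI50 marks 50% less growth. Definition used: TGI = concentration required for complete inhibition of growth.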 Bounds are passed on as bounds.

Turning to `C=CC1=C[C@@H]2[C@@H]3O[C@]4(CC[C@H](O4)[C@@H](C)C[C@@H](O)C3=O)C[C@H](O)C3=NCC[C@@]32CC1`, the GI50 in [1], in assay [2], in [3], in assay [4], in assay [5] and in [6] was under 0.00333 µM each time. Also, the GI50 in assay [7], in assay [8], in [9] and in assay [10] was under 0.00333 µM throughout. Also, the TGI in [2], in assay [3], in [4], in assay [5], in assay [6] and in [7] was under 0.00333 µM throughout. Further, the TGI in [8] is under 0.00333 µM; in [9] it was 0.0117 µM; in assay [10], under 0.00333 µM.

`COC1(O)C(=O)c2ccccc2OC1(OC)c1ccccc1` (stereo not drawn): the TGI in assay [1], in assay [2], in [3], in [4], in assay [5] and in [6] was over 100 µM in each case. Moreover, the TGI in assay [7], in [8], in assay [9] and in assay [10] was over 100 µM in each case.

`O=C1Nc2ccccc2C1Cc1ccc([N+](=O)[O-])cc1` (stereo not drawn): the TGI in assay [1], in [2], in assay [3], in assay [4], in assay [5] and in assay [6] was over 100 µM in each case. Also, the TGI in assay [7], in [8], in assay [9] and in assay [10] was over 100 µM throughout.

Take `Cc1nc2cnc3cc(F)c(-c4ccc(Oc5ncccn5)cc4Cl)cc3c2n1[C@H]1CCN(C(=O)CO)C[C@@H]1F`: the GI50 in [1] is 0.0513 µM; in assay [2], 8.41 µM; in assay [3], 0.417 µM; in assay [4], 4.89 µM; in assay [5], 0.106 µM; in assay [6], 2.54 µM. Also, the GI50 in assay [7] was 3.6 µM; in assay [8], 0.49 µM; in assay [9] it was 0.059 µM; in assay [10], 13.4 µM. In addition, the TGI in assay [1] is 16.9 µM; in [2], over 57.1 µM; in assay [3] it was 11.5 µM; in [4], over 100 µM; in assay [5] it was 1.69 µM; in assay [6], over 100 µM. Further, the TGI in assay [7] is over 100 µM; in assay [8] it was 14.7 µM; in assay [9] it was 0.536 µM; in assay [10], 77.3 µM.

As for `CN1CCN(c2nc(NCCCCNc3ccnc4cc(Cl)ccc34)c3ccccc3n2)CC1`, the GI50 in [1] is 2 µM; in [2] it was 1.84 µM; in assay [3] it was 1.89 µM; in assay [4], 4.28 µM; in assay [5], 1.87 µM; in [6] it was 5.14 µM. Also, the GI50 in assay [7] is 2.9 µM; in assay [8] it was 1.78 µM; in assay [9] it was 2.11 µM; in assay [10] it was 5.48 µM. For the same compound, the TGI was determined as 5.49 µM in assay [1]; 3.73 µM in assay [2]; 4.19 µM in assay [3]; 20.8 µM in [4]; 4.23 µM in assay [5]; 18.3 µM in [6]. Moreover, the TGI in [7] turned out to be 14 µM; in assay [8], 3.19 µM; in assay [9], 4.48 µM; in [10] it was 26 µM.

For `CS(=O)(=O)c1ccc(-c2cnc(N)c(C(=O)Nc3ccccc3)n2)cc1`, the GI50 in assay [1] is 7.5 µM; in assay [2], 24.2 µM; in assay [3] it was 4.2 µM; in [4] it was over 81.5 µM; in assay [5] it was 5.62 µM; in assay [6] it was 10.7 µM. For the same compound, the GI50 in assay [7] is 5.92 µM; in [8], 28.7 µM; in assay [9], 7.87 µM; in assay [10], over 100 µM. The TGI in assay [1], in assay [2], in assay [3], in assay [4], in [5] and in assay [6] was over 100 µM in each case. Moreover, the TGI in assay [7] was over 100 µM; in assay [8], over 100 µM; in assay [9] it was over 96 µM; in [10], over 100 µM.

As for `NC(=O)c1cc([N+](=O)[O-])c(Cl)c([N+](=O)[O-])c1`, the GI50 in [1] is 2.58 µM; in [2], 17.3 µM; in [3], 1.86 µM; in [4], 15.3 µM; in [5] it was 3.21 µM; in assay [6], 15.7 µM. Further, the GI50 in [7] was 1.98 µM; in [8], 5.59 µM; in assay [9], 13.7 µM; in assay [10], 11.9 µM. Further, the TGI in assay [1] stood at 5.51 µM; in [2], 31.9 µM; in assay [3], 3.7 µM; in assay [4] it was 29.5 µM; in assay [5], 8.55 µM; in [6], 38.2 µM. Also, the TGI in assay [7] was determined as 3.92 µM; in assay [8] it was 18 µM; in assay [9], 27.8 µM; in assay [10], 29.4 µM.

On to `CN(C)c1ccc(-c2cc(-c3ccc(Nc4nc(Nc5ccccc5)nc(Nc5ccc(Cl)cc5)n4)cc3)nc(N)n2)cc1`, for which the GI50 is 3.27 µM in [1]; 2.4 µM in assay [2]; 5.03 µM in [3]; 13.5 µM in [4]; 3.2 µM in assay [5]; 3.71 µM in [6]. For the same compound, the GI50 is 4.26 µM in assay [7], 1.89 µM in assay [8], 7.18 µM in [9] and 2.57 µM in assay [10]. The TGI was determined as 12.7 µM in [1]; 16.6 µM in assay [2]; 46.2 µM in assay [3]; 69.2 µM in assay [4]; 12.2 µM in [5]; 14.1 µM in [6]. Also, the TGI in [7] was over 100 µM; in assay [8] it was 11.6 µM; in assay [9] it was 43.5 µM; in assay [10], 20.2 µM.

As to `Cc1ccc(/C=C2/SC(Nc3nc(-c4nc(NC5=NC(=O)/C(=C\c6ccc(C)cc6)S5)sc4C)c(C)s3)=NC2=O)cc1`, the GI50 in assay [1] is 3.62 µM; in [3], 0.287 µM; in assay [4] it was 10.1 µM; in assay [5] it was 0.368 µM; in assay [6], 0.643 µM; in assay [7] it was 0.347 µM. The GI50 in assay [8] was 0.077 µM; in [9], 36.3 µM; in assay [10] it was 0.0926 µM. Moreover, the TGI is over 50 µM in [1]; 0.874 µM in assay [2]; 12.2 µM in [3]; over 50 µM in [4]; over 50 µM in [5]; over 50 µM in assay [6]. Moreover, the TGI in [7] is over 19.6 µM; in assay [9], over 50 µM; in assay [10], 1.14 µM.

Take `O=C1/C(=C/c2ccc3c(c2)OCO3)CCC1CN1CCOCC1` (stereo not drawn): the TGI in [1] was 38.5 µM; in [2], 33.7 µM; in assay [3] it was 7.84 µM; in [4], 31.2 µM; in [5], 3.99 µM; in assay [6] it was 33.4 µM. Besides, the TGI in assay [7] came to 8.46 µM; in assay [8] it was 20.4 µM; in assay [9], 28.6 µM; in assay [10], 14.8 µM.

In the case of `NC1=C(Br)C(=O)c2ncccc2C1=O`, the TGI in [1] came to 4.3 µM; in assay [2], 1.41 µM; in assay [3], 0.655 µM; in assay [4], 2.41 µM; in assay [5] it was 2.81 µM; in assay [6] it was 1.16 µM. Further, the TGI in assay [7] stood at 1.65 µM; in [8], 1.46 µM; in assay [9], 1.49 µM; in assay [10] it was 2.84 µM. For the same compound, the GI50 in assay [10] is 0.37 µM.

`N=c1c2c(-c3ccccc3)c(-c3ccccc3)n(Cc3ccccc3)c2ncn1CCCO`: the GI50 in assay [1] was 0.363 µM; in assay [2], 0.58 µM; in assay [3] it was 0.5 µM; in [4], 2.21 µM; in [5] it was 1.77 µM; in [6], 0.448 µM. The GI50 is 0.696 µM in [7], 0.901 µM in [8], 1.77 µM in assay [9] and 8.36 µM in [10]. For the same compound, the TGI came out at 3.77 µM in assay [1]; 3.32 µM in assay [2]; 2.77 µM in assay [3]; 21.3 µM in assay [4]; 4.74 µM in assay [5]; 4.47 µM in assay [6]. The TGI in assay [7] is 15.5 µM; in [8], 2.16 µM; in assay [9] it was 5.64 µM; in assay [10], over 55.9 µM.

On to `Cc1ccc2c(c1C)-c1c(ccc(C)c1C)C(=O)C2=O`, for which the TGI in [1] turned out to be 7.43 µM; in assay [2], 2.95 µM; in assay [3], 3.76 µM; in assay [4] it was 23.8 µM; in assay [5] it was 0.702 µM; in assay [6] it was 3.4 µM. The TGI came to 11 µM in [7], 1.29 µM in assay [8], 3.1 µM in [9] and 5.76 µM in [10].

As for `C=CCNCCCN1C(=O)c2ccc3c4c(ccc(c24)C1=O)C(=O)N(CCCNCC=C)C3=O`, the GI50 was 0.157 µM in [1]; 0.2 µM in assay [2]; 0.316 µM in assay [3]; 0.592 µM in assay [4]; 0.383 µM in assay [5]; 0.195 µM in assay [6]. The GI50 in [7] was 0.413 µM; in [8] it was 0.182 µM; in assay [9], 0.364 µM; in assay [10], 1.3 µM. For the same compound, the TGI turned out to be 0.499 µM in assay [1]; 0.955 µM in assay [2]; 0.97 µM in [3]; 1.96 µM in assay [4]; 1.41 µM in [5]; 0.448 µM in [6]. In addition, the TGI in assay [7] worked out at 2.38 µM; in assay [8] it was 0.395 µM; in assay [9], 1.7 µM; in [10], 5.16 µM.

As to `NC(=O)c1oc([N+](=O)[O-])c(-c2ccccc2)c1-c1ccccc1`, the TGI in assay [1] is over 100 µM; in assay [2] it was 35.3 µM; in [3], 29.1 µM; in assay [4], over 100 µM; in assay [5] it was 70 µM; in assay [6] it was over 100 µM. Further, the TGI in [7] was 35.4 µM; in [8] it was 14.2 µM; in assay [9], 36.3 µM; in [10], 28.2 µM.

As to `COc1ccc(-c2nnc(SCC(=O)Nc3ccc(/C(C)=N\O)cc3)n2-c2ccccc2)cc1OC`, the GI50 was over 100 µM in [1]; 3.39 µM in assay [2]; over 100 µM in assay [3]; 6.43 µM in assay [4]; over 100 µM in [5]; over 100 µM in assay [6]. The GI50 was over 100 µM in assay [7], over 100 µM in assay [8], 5.04 µM in assay [9] and 3.75 µM in [10]. For the same compound, the TGI in assay [1] was over 100 µM; in [2], 37.7 µM; in [3] it was over 100 µM; in assay [4], over 100 µM; in assay [5], over 100 µM; in assay [6] it was over 100 µM. The TGI in assay [7] was over 100 µM; in assay [8], over 100 µM; in [9], 28.8 µM; in assay [10], over 100 µM.

Turning to `CN(CC(=O)O)c1ccc(/C=C/c2ccnc3ccccc23)cc1`, the TGI in assay [1] is 66.6 µM; in assay [2] it was 54.5 µM; in assay [3] it was 45.7 µM; in assay [4] it was over 100 µM; in assay [5], 48.2 µM; in assay [6] it was 67.1 µM. Also, the TGI in [7] was over 100 µM; in assay [8], 31.7 µM; in assay [9], 44.6 µM; in assay [10], 75 µM.
